Reference: patent US6710081B1, “Erection insufficiency remedies” (priority 1999, dated 2004)

Assays:
corpus cavernosum penis = test: Intracavernosal pressure increasing activity; type: in vivo, beagle; conditions: for Intracavernosal pressure increase: anesthetized beagle, intracavernosal injection, maximum up to 4 minutes from administration
Excerpt: Under anesthesia with thiopental, cannulae were indwelled in left cephalic vein (for infusion) and left femoral artery (for measuring blood pressure and heart rate) of a beagle. The epidermis was dissected from the top of penis to scrotum with an electrocautery to expose the albuguinea on the surface of the cavernous body. A cannula with a needle for measuring the inner pressure and administering a chemical was inserted into the cavernous body and (11α,15α,13E)-9-oxo-11,15-dihydroxy-16-(3-methoxy-methylphenyl)-17,18,19,20-tetranor-5-thiaprost-13-enoic acid methyl ester (methyl ester of the compound of formula (I-1) above, hereinafter abbreviated as methyl ester form) was administered in four kinds of dosage, i.e., 0.2, 2.0, 20, and 200 ng. As controls, 20 ng of PGE1 and physiological saline were used.
Through the cannula inserted into the corpus cavernosum penis, the chemical was injected in amounts of 100 μl and was followed by 300 μl saline injection. A difference between the maximum intra pressures up to 4 minutes from the administration and the intra pressure at the time of administration was taken as the value of intracavernosal pressure increase.

rat = conditions: in vivo, iv
Procedure: It has been confirmed that the compounds of the present invention of formula (I) have sufficiently low toxicity and are sufficiently safe for use as pharmaceutical preparations. For example, the maximal tolerated dose of methyl ester of the compound of formula (I-1) was 30 mg/kg weight or more for rat intravenous administration.

SMILES | Intracavernosal pressure increase (corpus cavernosum penis; dose 0.2 ng/100 μl) | Intracavernosal pressure increase (corpus cavernosum penis; dose 2.0 ng/100 μl) | Intracavernosal pressure increase (corpus cavernosum penis; dose 20 ng/100 μl) | Intracavernosal pressure increase (corpus cavernosum penis; dose 200 ng/100 μl) | Effect on intracavernosal pressure (in words) (corpus cavernosum penis; beagle, 0.2 to 200 ng intracavernosal) | maximal tolerated dose (rat)
COCc1cccc(C[C@H](O)/C=C/[C@H]2[C@H](O)CC(=O)[C@@H]2CCSCCCC(=O)OC)c1 [Methyl ester form, (11α,15α,13E)-9-oxo-11,15-dihydroxy-16-(3-methoxy-methylphenyl)-17,18,19,20-tetranor-5-thiaprost-13-enoic acid methyl ester] | 4.3 ± 1.9 mmHg | 12.7 ± 8.7 mmHg | 28.3 ± 12.3 mmHg | 40.7 ± 16.6 mmHg | increased the intracavernosal pressure dose-dependently | ≥ 30 mg/kg weight
CCCCC[C@H](O)/C=C/[C@H]1[C@H](O)CC(=O)[C@@H]1CCCCCCC(=O)O [PGE1, prostaglandin E1, reference compound] | – | – | 29.0 ± 12.5 mmHg | – | – | –
